Columns and labels:
ECE-2 = molecular target: T1, ECE-2 (Homo sapiens, UniProt P0DPD6); test: Purified peptidase assay, ECE-2; format: biochemical; conditions: recombinant purified human enzyme; for prodrugs the active form was tested
T1 construct: purchased R&D Systems (Minneapolis, MN)
T1 sequence (P0DPD6 1-811): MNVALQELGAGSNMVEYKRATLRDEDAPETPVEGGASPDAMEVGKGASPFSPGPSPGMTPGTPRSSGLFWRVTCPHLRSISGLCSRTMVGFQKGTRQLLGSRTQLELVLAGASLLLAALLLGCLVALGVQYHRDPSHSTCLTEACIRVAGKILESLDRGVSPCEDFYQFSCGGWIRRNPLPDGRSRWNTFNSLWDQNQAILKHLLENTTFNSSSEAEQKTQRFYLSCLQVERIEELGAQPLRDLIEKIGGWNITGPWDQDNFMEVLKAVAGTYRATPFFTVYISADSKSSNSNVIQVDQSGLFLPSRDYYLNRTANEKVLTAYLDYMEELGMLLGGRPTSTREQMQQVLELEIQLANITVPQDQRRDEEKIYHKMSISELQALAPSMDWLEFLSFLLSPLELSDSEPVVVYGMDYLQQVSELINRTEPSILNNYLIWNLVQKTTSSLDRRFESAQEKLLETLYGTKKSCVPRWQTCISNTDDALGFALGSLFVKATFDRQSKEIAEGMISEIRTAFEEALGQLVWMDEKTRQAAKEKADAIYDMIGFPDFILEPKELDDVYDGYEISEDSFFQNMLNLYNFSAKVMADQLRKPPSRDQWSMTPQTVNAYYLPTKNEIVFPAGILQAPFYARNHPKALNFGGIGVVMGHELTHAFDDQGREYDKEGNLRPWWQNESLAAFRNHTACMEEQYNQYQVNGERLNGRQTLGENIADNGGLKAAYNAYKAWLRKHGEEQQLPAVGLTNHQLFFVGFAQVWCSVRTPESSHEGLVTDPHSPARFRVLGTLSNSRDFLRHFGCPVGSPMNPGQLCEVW
Description: (§1) Purified recombinant human enzymes were purchased from R&D Systems (Minneapolis, MN). […] Each substrate was diluted to 100 μM in the assay buffer recommended for each enzyme by the supplier. […] To these, 5 μl of diluted enzyme was added, followed by 10 μl of the quenched peptide substrate. The plates were incubated at 37°C until at least 10% substrate turnover or 5 μM product had formed. Fluorescence was measured using a Tecan Safire II (Excitation 320 nm/Emission 420 nm). Each plate included a standard curve of reaction product and positive (no enzyme) and negative (dimethyl sulfoxide vehicle) controls. Dose-response data were plotted and inhibition values (IC50) determined by linear regression analysis using GraphPad Prism (GraphPad Software, La Jolla, CA).

ECE-1 = molecular target: T2, ECE-1 (Homo sapiens, UniProt P42892); test: biochemical; conditions: recombinant purified human enzyme; for prodrugs the active form was tested
T2 construct: purchased R&D Systems (Minneapolis, MN)
T2 sequence (P42892 1-770): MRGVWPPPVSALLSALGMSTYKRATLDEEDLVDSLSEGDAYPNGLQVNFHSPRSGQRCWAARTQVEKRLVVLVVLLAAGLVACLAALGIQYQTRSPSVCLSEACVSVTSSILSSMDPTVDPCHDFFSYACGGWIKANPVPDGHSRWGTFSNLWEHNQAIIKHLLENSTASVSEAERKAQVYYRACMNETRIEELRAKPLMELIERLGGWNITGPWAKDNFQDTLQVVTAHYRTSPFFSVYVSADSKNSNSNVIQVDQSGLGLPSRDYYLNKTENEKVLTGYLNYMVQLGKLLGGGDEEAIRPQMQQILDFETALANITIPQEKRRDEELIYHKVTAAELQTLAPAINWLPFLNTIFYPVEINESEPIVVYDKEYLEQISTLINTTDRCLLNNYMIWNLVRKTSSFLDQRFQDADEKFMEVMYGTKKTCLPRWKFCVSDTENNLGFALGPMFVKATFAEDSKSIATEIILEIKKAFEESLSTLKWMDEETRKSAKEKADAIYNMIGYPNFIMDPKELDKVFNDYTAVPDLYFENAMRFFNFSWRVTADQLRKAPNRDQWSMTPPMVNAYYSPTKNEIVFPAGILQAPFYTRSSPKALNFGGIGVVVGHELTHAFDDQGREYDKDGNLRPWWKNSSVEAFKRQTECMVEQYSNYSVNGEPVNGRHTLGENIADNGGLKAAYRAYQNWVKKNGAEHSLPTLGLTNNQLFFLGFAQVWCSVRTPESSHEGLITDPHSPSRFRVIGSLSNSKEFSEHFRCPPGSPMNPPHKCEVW
Description: as §1

[1] = test system: castor oil–induced diarrhea; test: Castor oil–induced diarrhea model; format: in vivo, rat; conditions: single oral dose 30 minutes before castor oil, fasted rats, vs vehicle (Fig. 1)
Description: Experiments were performed with 6-to-7-week-old male Wistar rats obtained from Charles River Laboratories (Wilmington, MA). All animals were housed in Saint Louis University facilities under controlled conditions of temperature, humidity, and a 12-hour light/dark cycle. They were maintained on standard rodent chow with free access to water. Animal care and all procedures were performed in accordance with the National Institutes of Health Guide for the Care and Use of Laboratory Animals and approved by the university’s institutional animal care and use committee.
Animals were weighed and individually housed in metabolic cages containing white paper underneath to collect feces. Test compounds or vehicles were administered by oral gavage (5 ml/kg), and then at indicated times, 10 ml/kg body weight of 100% castor oil was administered by oral gavage to induce diarrhea. Animals had access to food within 5 minutes. Stool weight was recorded starting 15 minutes after castor oil administration and repeated every 15 minutes up to 4 hours. […] After 4 hours, animals were euthanized with CO2, and blood and tissues were collected for analyses.

IC50 (ECE-2): 15 µM
IC50 (ECE-1): 3.3 µM
Compound: Cc1nc2ccc(CCCNC(=O)C3(C[C@@H](C)C(=O)O)CCCC3)cc2s1 [UK-505,749, (R)-2-methyl-3-(1-((3-(2-methylbenzo[d]thiazol-6-yl)propyl)carbamoyl)cyclopentyl)propanoic acid]
Cumulative stool output over 4 hours [1]: significantly reduced

From article PMC4851326, “Pharmacologic Comparison of Clinical Neutral Endopeptidase Inhibitors in a Rat Model of Acute Secretory Diarrhea” (The Journal of Pharmacology and Experimental Therapeutics, 2016)
